Measurements taken from ChEMBL document CHEMBL1139114, “Identification and structure-activity relationships of substituted pyridones as inhibitors of Pim-1 kinase” (Bioorg Med Chem Lett, 2007).

Target: Serine/threonine-protein kinase pim-1 (Homo sapiens, UniProt P11309)
Assay: Inhibition of Pim1 kinase

Serine/threonine-protein kinase pim-1, sequence (P11309 whole entry): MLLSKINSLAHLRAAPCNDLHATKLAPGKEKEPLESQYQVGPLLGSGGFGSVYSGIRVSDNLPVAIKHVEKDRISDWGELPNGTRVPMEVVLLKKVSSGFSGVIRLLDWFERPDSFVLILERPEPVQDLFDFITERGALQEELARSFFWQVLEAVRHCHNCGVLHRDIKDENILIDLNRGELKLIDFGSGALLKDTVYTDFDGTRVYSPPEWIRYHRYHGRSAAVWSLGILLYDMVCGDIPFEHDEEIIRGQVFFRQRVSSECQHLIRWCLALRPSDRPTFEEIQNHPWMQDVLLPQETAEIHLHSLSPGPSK

SMILES	IC50 [µM]
Cc1ccc(O)c(-c2cc(-c3ccccc3)c(C#N)c(=O)[nH]2)c1	0.34
Cc1ccc(O)c(-c2cc(-c3ccccc3)[nH]c(=O)c2C#N)c1	0.37
N#Cc1c(-c2ccccc2)cc(-c2ccc(O)cc2)nc1N	4.41
CCc1ccc(O)c(-c2cc(-c3cccc(Cl)c3)c(C#N)c(=O)[nH]2)c1	1.03
COc1ccc(-c2cc(C(F)(F)F)c(C#N)c(=O)[nH]2)cc1Br	1.14
N#Cc1c(-c2ccncc2)c2c([nH]c1=O)-c1ccccc1CC2	> 20
CCOC(=O)C1=C2C(=O)Oc3ccccc3C2N(C)C(=O)C1 (stereo not given)	> 20
N#Cc1c(-c2ccc(O)cc2)cc(-c2ccccc2O)[nH]c1=O	0.43
COc1ccc(-c2c3c([nH]c(=O)c2C#N)-c2ccccc2OC3)cc1	> 20
Nc1n[nH]c2nc(-c3cc(Br)ccc3O)cc(-c3ccccc3)c12	1.77
N#Cc1c(-c2ccncc2)c2c([nH]c1=O)-c1ccccc1OC2	20

Second part, the compound after the results:

IC50 [µM]	SMILES
0.92	N#Cc1c(-c2ccc(Cl)cc2)c2c([nH]c1=O)-c1ccccc1OC2
1.23	N#Cc1c(-c2ccccc2Cl)c2c([nH]c1=O)-c1ccccc1OC2
> 20	N#Cc1c(-c2ccccn2)c2c([nH]c1=O)-c1ccccc1OC2
4.79	N#Cc1c(-c2cccnc2)c2c([nH]c1=O)-c1ccccc1SC2
20	N#Cc1c(-c2ccccc2Cl)c2c([nH]c1=O)-c1ccccc1SC2
> 20	N#Cc1c(-c2ccc(F)cc2)c2c([nH]c1=O)-c1ccccc1SC2

Target: Serine/threonine-protein kinase pim-2 (Homo sapiens, UniProt Q9P1W9)
Assay: Inhibition of Pim2 kinase

Serine/threonine-protein kinase pim-2, sequence (Q9P1W9 whole entry): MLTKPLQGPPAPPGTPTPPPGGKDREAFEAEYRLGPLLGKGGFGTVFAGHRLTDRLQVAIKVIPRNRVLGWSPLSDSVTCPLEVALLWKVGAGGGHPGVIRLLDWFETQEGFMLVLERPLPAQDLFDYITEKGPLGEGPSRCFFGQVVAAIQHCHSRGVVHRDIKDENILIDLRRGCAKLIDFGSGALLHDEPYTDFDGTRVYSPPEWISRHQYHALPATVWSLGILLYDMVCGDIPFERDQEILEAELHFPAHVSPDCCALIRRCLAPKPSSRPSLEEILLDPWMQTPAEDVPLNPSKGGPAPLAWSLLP

SMILES	IC50 [µM]
N#Cc1c(-c2ccccc2)cc(-c2cc(Br)ccc2O)[nH]c1=O	> 20

Target: Dual specificity mitogen-activated protein kinase kinase 1 (Homo sapiens, UniProt Q02750)
Assay: Inhibition of MEK1 kinase

Dual specificity mitogen-activated protein kinase kinase 1, sequence (Q02750 whole entry): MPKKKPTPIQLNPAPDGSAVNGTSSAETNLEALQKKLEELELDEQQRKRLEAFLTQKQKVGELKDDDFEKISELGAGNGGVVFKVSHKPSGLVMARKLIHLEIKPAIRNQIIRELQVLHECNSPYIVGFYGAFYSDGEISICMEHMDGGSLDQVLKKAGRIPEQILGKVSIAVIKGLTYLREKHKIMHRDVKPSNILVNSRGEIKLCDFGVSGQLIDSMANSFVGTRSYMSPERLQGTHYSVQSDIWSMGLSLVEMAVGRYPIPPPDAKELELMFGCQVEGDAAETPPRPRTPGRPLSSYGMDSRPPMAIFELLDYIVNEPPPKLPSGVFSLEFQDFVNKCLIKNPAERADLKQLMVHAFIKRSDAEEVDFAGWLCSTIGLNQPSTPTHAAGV

SMILES	IC50 [µM]
N#Cc1c(-c2ccccc2)cc(-c2cc(Br)ccc2O)[nH]c1=O	> 20

Target: Dual specificity mitogen-activated protein kinase kinase 2 (Homo sapiens, UniProt P36507)
Assay: Inhibition of MEK2 kinase

Dual specificity mitogen-activated protein kinase kinase 2, sequence (P36507 whole entry): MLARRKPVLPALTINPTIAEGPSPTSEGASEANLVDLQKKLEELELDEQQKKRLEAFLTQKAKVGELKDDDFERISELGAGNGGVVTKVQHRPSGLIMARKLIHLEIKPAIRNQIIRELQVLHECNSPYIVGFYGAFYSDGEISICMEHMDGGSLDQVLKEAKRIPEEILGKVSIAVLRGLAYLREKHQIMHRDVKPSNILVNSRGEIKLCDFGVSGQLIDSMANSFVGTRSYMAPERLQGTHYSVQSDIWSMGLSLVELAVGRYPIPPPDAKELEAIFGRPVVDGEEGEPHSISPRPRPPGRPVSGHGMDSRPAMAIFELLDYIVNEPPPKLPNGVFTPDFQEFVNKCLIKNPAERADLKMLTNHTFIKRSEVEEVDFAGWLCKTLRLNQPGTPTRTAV

SMILES	IC50 [µM]
N#Cc1c(-c2ccccc2)cc(-c2cc(Br)ccc2O)[nH]c1=O	> 20
